Laboratory results taken from the supplement of paper PMC10307832.

Key:
Assay in all cases: relative viability (nuclei count vs DMSO), 5 days (fraction); higher = more cells survive
[1] = compound: CCN(CCO)CCCC(C)Nc1ccnc2cc(Cl)ccc12 [Hydroxychloroquine] + CC(C)C[C@H](NC(=O)[C@H](Cc1ccccc1)NC(=O)c1cnccn1)B(O)O [Bortezomib] (partner 0.002 µM)
Procedure, shortened: (§1)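 A single step with final 0.05% Triton X-100, 1% formaldehyde and 1 ug/ml Hoechst fixed the cells and stained nuclei 5 days after treatment. Lung cancer cell lines in 1536-well plates had been treated by pin tool the day after seeding with one drug alone or a fixed anchor-drug dose plus five library-drug doses (not always all listed) in √10 steps, and nuclei were counted on 4× images. Relative viability is the ratio of nuclei in treated wells to nuclei in vehicle wells, taken as the median of duplicate plates.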

[2] = compound: CCN(CCO)CCCC(C)Nc1ccnc2cc(Cl)ccc12 [Hydroxychloroquine] + CS(=O)(=O)N1CCN(Cc2cc3nc(-c4cccc5[nH]ncc45)nc(N4CCOCC4)c3s2)CC1 [Pictilisib] (partner 1 µM)
Procedure, shortened: as §1

[3] = compound: CCN(CCO)CCCC(C)Nc1ccnc2cc(Cl)ccc12 [Hydroxychloroquine] + O=C(c1cc(Cc2n[nH]c(=O)c3ccccc23)ccc1F)N1CCN(C(=O)C2CC2)CC1 [Olaparib] (partner 8 µM)
Procedure, shortened: as §1

[4] = compound: CCN(CCO)CCCC(C)Nc1ccnc2cc(Cl)ccc12 [Hydroxychloroquine] + CC(=O)Nc1cccc(-n2c(=O)n(C3CC3)c(=O)c3c(Nc4ccc(I)cc4F)n(C)c(=O)c(C)c32)c1 [Trametinib] (partner 0.02 µM)
Procedure, shortened: as §1

Cell Line	relative viability ([1]; first compound 0.5 µM)	relative viability ([1]; first compound 1.581 µM)	relative viability ([1]; first compound 5 µM)	relative viability ([1]; first compound 15.81 µM)	relative viability ([1]; first compound 50 µM)	relative viability ([2]; first compound 0.5 µM)	relative viability ([2]; first compound 1.581 µM)	relative viability ([2]; first compound 5 µM)	relative viability ([2]; first compound 15.81 µM)	relative viability ([2]; first compound 50 µM)	relative viability ([3]; first compound 0.5 µM)	relative viability ([3]; first compound 1.581 µM)	relative viability ([3]; first compound 5 µM)	relative viability ([3]; first compound 15.81 µM)	relative viability ([3]; first compound 50 µM)	relative viability ([4]; first compound 0.5 µM)	relative viability ([4]; first compound 1.581 µM)	relative viability ([4]; first compound 5 µM)	relative viability ([4]; first compound 15.81 µM)	relative viability ([4]; first compound 50 µM)
201T	1.07	1.09	1.1	1.07	1.11	0.687	0.555	0.641	0.631	0.698	0.788	0.821	0.826	0.857	0.829	0.727	0.777	0.728	0.733	0.724
A549	–	–	–	–	–	0.622	0.525	0.434	0.529	0.565	0.332	0.297	0.355	0.323	0.371	–	–	–	–	–
A-427	0.956	0.946	0.982	0.961	1.06	0.713	0.624	0.674	0.585	0.628	0.816	0.702	0.61	0.691	0.816	0.752	0.639	0.697	0.715	0.675
ABC-1	0.263	0.271	0.277	0.297	0.235	0.75	0.761	0.783	0.815	0.737	0.98	0.889	0.797	0.847	0.727	–	–	–	–	–
BEN	0.693	0.802	0.977	0.824	0.949	0.615	0.465	0.49	0.6	0.676	0.843	1.08	1.04	1.03	1.02	0.951	0.881	0.954	1.12	1.03
CAL-12T	1.11	–	0.922	0.795	0.926	0.793	–	0.382	0.35	0.598	0.693	0.63	0.782	0.689	0.68	0.268	0.265	0.326	0.338	0.32
COR-L23	0.89	1.17	1	1.28	1.21	0.585	0.84	0.875	0.899	0.968	0.315	0.345	0.381	0.353	0.387	0.602	0.582	0.616	0.767	0.712
COR-L 105	0.879	0.664	0.694	0.737	0.891	0.392	0.435	0.425	0.325	0.338	0.675	0.612	0.596	0.519	0.744	0.472	0.393	0.44	0.384	0.391
Calu-6	1	1.08	0.954	1	0.922	0.997	0.785	0.949	0.962	0.986	0.65	0.607	0.615	0.673	0.569	–	–	–	–	–
